Results published in patent US5942522A, “Antiviral compounds and antihypertensive compounds” (Schering Corporation, priority 1997, dated 1999).
≈ marks a conversion by molar mass, not a printed value. Like-named read-outs stand apart in the source and are kept apart here.

Tests used:
HSV-2 (strain MS) = assay: HSV-β-Gal assay: transient expression of beta galactosidase in transfected HeLa cells superinfected with HSV-2; type: cell-based
Experimental: (§1) HeLa and Vero cell cultures were maintained in Eagles Minimal Essential Medium (EMEM) which was supplemented with glutamine, penicillin, streptomycin and 10% fetal calf serum (10% EMEM). Stock cultures of HSV-2 (strain MS available from ATCC VR-540) were grown in and harvested from Vero cells. Viral stocks were titered in Vero cells according to established procedures.
Plasmid pON 245^ori- contains the promoter of the HSV-1 thymidine kinase (tk) gene located immediately 5'of the E. coli lac Z gene. In this arrangement, the tk promoter controls transcription from the bacterial gene in transient expression assays. Additionally, an SV40 polyadenylation signal is present at the 3' end of the lac Z gene to allow for the efficient translation of the mRNA in eucaryotic cells. The expression of beta galactosidase in a transient assay using pON 245^ori- is dependent upon superinfection of the transfected cells with HSV. […] For example see U.S. application Ser. No. 07/435,491 filed Sep. 5, 1989, the disclosure of which is incorporated herein by reference thereto.
HeLa cells were seeded into 96 well microtiter plates and allowed to grow to 80% confluency (approximately 35000 cells/well). One half microgram of plasmid pON 245^ori- DNA was introduced into the cells of each well by the […] precipitation technique (Grahman and Van der Eb, 1973). Four to six hours later, the cells were rinsed with hank's Balanced Salt Solution (HBSS), overlaid with 10% EMEM and incubated at 37° C. At 24 hours post-transfection, cells were rinsed, overlaid with 10% EMEM again and re-incubated at 37° C. At 48 hours post-transfection, cells were rinsed and overlaid with either EMEM containing 2% fetal calf serum (2% EMEM), 2% EMEM containing HSV-2 (strain MS, Multiplicity of Infection [moi]=5 pfu/cell) or 2% EMEM containing HSV-2 and the appropriate concentration of Schering compound to be tested. Twenty-four hours later, the cells were harvested and assayed for beta galactosidase activity as described below.
All determinations of beta galactosidase activity were performed in 96 well microtiter plates. The intracellular level of beta galactosidase activity in each well was determined from cell lysates of the monolayer cultures. Aliquots were assayed by incubation in the presence of beta galactosidase substrate, 4-methylumbelliferyl-β-D-galactoside (MUG, 125 ug/ml, Sigma), for 2 hours. The generation of fluorescent product was quantified on a Microfluor microfluorimeter (Dynatech) after addition of 0.1M glycine, pH 10.3 (Spaete and Mocarski, 1985). The inhibitory activity of a compound was plotted versus the concentration and an IC50 value (the concentration of compound required to reduce beta glactosidase expression by 50%) was obtained for each compound tested.

[1] = Compound toxicity assay: inhibition of HeLa cell translation (3H-leucine incorporation); type: cell-based; settings: human, HeLa cells
Experimental: as §1
HeLa cells were treated with inhibitory compound for 24 hours, after which levels of translational activity were assayed.
For assay of translational activity, HeLa cultures were grown to 80% confluency in 96 well microtiter plates, treated with appropriate concentrations of compound in 2% EMEM during an overnight incubation at 37° C., then rinsed with HBSS and overlaid with […] of 2% EMEM containing 8 uCi of tritiated leucine (^3 H-LEU, […], Amersham Corp., Arlington Heights, Ill.). After a 1 hour incubation at 36.5°C., the cells were rinsed twice with phosphate buffered saline (PBS) and lysed in 400 ul/well of 1×PBS, 0.5% sodium dodecyl sulphate (SDS). After a 10 min incubation at 36.5° C., the contents of the well were transferred to a well in a Millititer HA microfiltration plate (Millipore Corp., Bedford, Mass.). The TCA insoluble proteins were precipitated onto the filter disc by a 10 min fixation with 5% TCA, followed by filtration under vacuum and three 10 minute rinses with 95% ethanol. The filters were dried at room temperature, cut from the milltitier plate and transferred to scintillation vials. TCA precipitable counts were assayed in 5 ml of Scintisol (Isolab, Akron, Ohio). The inhibitory activity of a compound was plotted versus the concentration and an IC50 value (that concentration of the compound required to decrease cellular translational activity by 50%) was derived for each compound.

[2] = Table II, read-out: Cytotoxicity 3H-LEU assay IC50
[3] = Human alphaherpesvirus 2, Table II, HeLa cells, HSV-2 strain MS, 24 h, read-out: Anti-HSV activity, HSV-β-GAL assay IC50
[4] = Human alphaherpesvirus 2, HeLa, 24 h, read-out: Anti-HSV activity, HSV-β-GAL assay IC50
[5] = Human alphaherpesvirus 2, Table II^1, HeLa cells, HSV-2 strain MS, 24 h, read-out: Anti-HSV activity HSV-β-Gal assay IC50
[6] = Human alphaherpesvirus 2, HeLa, read-out: HSV: antiHSV activity, HSVβ-Gal Assay, IC50

| Compound | CC50 at 24 h [1, 2] | IC50 (HSV-2 (strain MS); [3]) | also measured |
| --- | --- | --- | --- |
| 4-Amino-7-Acetyloxy-8-Methyl-Benzopyran-2-one [Compound 68] |  |  | Anti-HSV activity HSV-β-Gal assay IC50 (HSV-2 (strain MS); Table II^1, HeLa cells, HSV-2 strain MS, 24 h): 30.0 µg/mL |
| COc1c(SC)c(=O)n(Cc2ccc(O[Si](C)(C)C(C)(C)C)cc2)c2cc(C)c(C)cc12 [Compound 1] | 1.8 µg/mL (≈ 3.83 µM) | 1.5 µg/mL (≈ 3.19 µM) |  |
| CCCCCCn1c(=O)c(C2NCCS2)c(OC)c2ccccc21 (stereo not shown) [Compound 2, 1-Hexyl-3-(2-thiazolidinyl)-4-methoxy-2(1H)-Quinolinone] | 32 µg/mL (≈ 92.4 µM) |  | IC50 (HSV-2 (strain MS); [4]): 2 µg/mL (≈ 5.77 µM) |
| CCCCCCn1c(=O)c(C=NOC)c(OC)c2ccccc21 [Compound 3, 1-Hexyl-3-Methoximinomethyl-4-Methoxy-2(1H)-Quinolinone] | 12.6 µg/mL (≈ 39.8 µM) | 2.5 µg/mL (≈ 7.9 µM) |  |
| CCCCCCn1c(=O)c(C=NO)c(OC)c2cc(C)ccc21 [Compound 4, 1-Hexyl-3-Oximinomethyl-4-Methoxy-6-Methyl-2(1H )-Quinolinone] | 100 µg/mL (≈ 316 µM) |  | IC50 (HSV-2 (strain MS); [4]): 3 µg/mL (≈ 9.48 µM) |
| Cc1cc2c(OCCN(C)C)c(SCO)c(=O)n(Cc3ccc(O[Si](C)(C)C(C)(C)C)cc3)c2cc1C [Compound 5] | 15 µg/mL (≈ 27.6 µM) | 3 µg/mL (≈ 5.53 µM) |  |
| CCCCCCn1c(=O)c(Cn2ncnn2)c(OC)c2ccccc21 [Compound 6, 1-hexyl-3-(2-tetrazolylmethyl)-4-methoxy-2(1H)-quinolinone] | 7 µg/mL (≈ 20.5 µM) |  | IC50 (HSV-2 (strain MS); [4]): 3 µg/mL (≈ 8.79 µM) |
| CCCCCCn1c(=O)c(C2NCCS2)c(OC)c2cc(C)ccc21 (stereo not shown) [Compound 8, 1-Hexyl-3-(2-thiazolidinyl)-4-methoxy-6-methyl-2(1H)-Quinolinone] | 3 µg/mL (≈ 8.32 µM) |  | IC50 (HSV-2 (strain MS); [4]): < 3 µg/mL |
| CCCCCCn1c(=O)c(Cn2cncn2)c(OC)c2cc(C)ccc21 [Compound 10, 1-Hexyl-3-(1,2,4-Triazol-1-ylmethyl)-4-Methoxy-6-Methyl-2(1H)-Quinolinone] | > 100 µg/mL | 4 µg/mL (≈ 11.3 µM) |  |
| CCCCCCn1c(=O)c(Cn2ccnc2)c(OC)c2cc(C)ccc21 [Compound 11, 1-Hexyl-3-(1H-imidazol-1-ylmethyl)-4-methoxy-6-methyl-2(1H)-quinolinone] | 17 µg/mL (≈ 48.1 µM) | 4.5 µg/mL (≈ 12.7 µM) |  |
| CCCCCCn1c(=O)c(Cn2cnnc2)c(OC)c2cc(C)ccc21 [Compound 12, 1-hexyl-3-(1,2,4-triazol-4-ylmethyl)-4-methoxy-6-methyl-2(1H)-quinolinone] | 32 µg/mL (≈ 90.3 µM) | 4.5 µg/mL (≈ 12.7 µM) |  |
| CCCCCCn1c(=O)c(Cn2ncnn2)c(OC)c2cc(C)ccc21 [Compound 13, 1-hexyl-3-(2-tetrazolylmethyl)-4-methoxy-6-methyl-2(1H)-quinolinone] | 17 µg/mL (≈ 47.8 µM) | 5 µg/mL (≈ 14.1 µM) |  |
| CCCCCCn1c(=O)c(Cn2cnnn2)c(OC)c2cc(C)ccc21 [Compound 14, 1-Hexyl-3-(1-Tetrazolylmethyl)-4-Methoxy-6-Methyl-2(1H)-Quinolinone] | > 100 µg/mL | 5 µg/mL (≈ 14.1 µM) |  |
| CCCCCCn1c(=O)c(CBr)c(OC)c2ccccc21 [Compound 15, 1-Hexyl-3-Bromomethyl-4-Methoxy-2(1H)-Quinolinone] | 25 µg/mL (≈ 71 µM) | 5 µg/mL (≈ 14.2 µM) |  |
| CCCCCCn1c(=O)c(Cn2cncn2)c(OC)c2ccccc21 [Compound 16, 1-Hexyl-3(1,2,4-Triazol-1-ylmethyl)-4-Methoxy-2(1H)-Quinolinone] | 18 µg/mL (≈ 52.9 µM) | 5 µg/mL (≈ 14.7 µM) |  |
| CCCCCCn1c(=O)c(C=NO)c(OC)c2ccccc21 [Compound 17, 1-Hexyl-3-Hydroximinomethyl-4-Methoxy-2(1H)-Quinolinone] | 25 µg/mL (≈ 82.7 µM) | 6 µg/mL (≈ 19.8 µM) |  |
| CCCCCCn1c(=O)c(Cn2cnnn2)c(OC)c2ccccc21 [Compound 18, 1-Hexyl-3-(1-tetrazolymethyl)-4-methoxy-2(1H)-quinolinone] | 18 µg/mL (≈ 52.7 µM) | 6 µg/mL (≈ 17.6 µM) |  |
| CCCCCCn1c(=O)c(C(=O)OCC)c(OC)c2cc(C)ccc21 [Compound 19, 1-hexyl-3-ethoxycarbonyl-4-methoxy-6-methyl-2(1H)-quinolinone] |  | 7 µg/mL (≈ 20.3 µM) |  |

| Compound | CC50 at 24 h [1, 2] | IC50 (HSV-2 (strain MS); [3]) | also measured |
| --- | --- | --- | --- |
| CON=Cc1c(OC)c2ccccc2n(Cc2ccccc2)c1=O [Compound 20, 1-Benzyl-3-Methoxyiminomethyl-4-Methoxy-2(1H)-Quinolinone] |  | 7 µg/mL (≈ 21.7 µM) |  |
| COc1c(Sc2ccccc2)c(=O)n(C)c2ccc(F)cc12 [Compound 22] | 25 µg/mL (≈ 79.3 µM) | 8 µg/mL (≈ 25.4 µM) |  |
| CCCCCCn1c(=O)c(C2OCCO2)c(OC)c2cc(C)ccc21 [Compound 23, 1-Hexyl-3-[2-(1,3-dioxolano)]-4-methoxy-6-methyl-2(1H)-Quinolinone] | > 100 µg/mL | 9 µg/mL (≈ 26.1 µM) |  |
| CCCCCCn1c(=O)c(C2OCCO2)c(OC)c2ccccc21 [Compound 24] |  | 10 µg/mL (≈ 30.2 µM) |  |
| COc1c(SC)c(=O)n(Cc2ccc(O)cc2)c2cc(C)c(C)cc12 [Compound 25] |  | 10 µg/mL (≈ 28.1 µM) |  |
| CCCCCCn1c(=O)c(C=NOC)c(OC)c2cc(C)ccc21 [Compound 26, 1-Hexyl-3-Methoximinomethyl-4-Methoxy-6-Methyl-2(1H)-Quinolinone] | 27 µg/mL (≈ 81.7 µM) | 7 µg/mL (≈ 21.2 µM) |  |
| Cc1c(OC(=O)c2ccco2)ccc2c(N)cc(=O)oc12 [Compound 65, 4-Amino-7-(2-Furoyloxy)-8-Methyl-Benzopyran-2-one] |  |  | IC50 (HSV-2 (strain MS); [5]): > 25 µg/mL |
| Cc1c(OC(=O)c2cccs2)ccc2c(N)cc(=O)oc12 [Compound 66, 4-Amino-7-(Thiophene-2-carbonyloxy)-8-Methyl-Benzopyran-2-one] |  |  | IC50 (HSV-2 (strain MS); [5]): > 25 µg/mL |
| Cc1c(OC(=O)c2ccncc2)ccc2c(N)cc(=O)oc12 [Compound 67, 4-Amino-7-Isonicotinoxy-8-Methyl-Benzopyran-2-one] |  |  | IC50 (HSV-2 (strain MS); [5]): 14 µg/mL (≈ 47.3 µM) |
| Cc1c(OC(=O)[C@H](C)NC(=O)OC(C)(C)C)ccc2c(N)cc(=O)oc12 [Compound 71, 4-Amino-7-(BOC-L-Alanyloxy)-8-Methyl-Benzopyran-2-one] |  |  | IC50 (HSV-2 (strain MS); [5]): > 25 µg/mL |
| CCOC(=O)c1c(OC(=O)c2ccc[nH]2)c2ccccc2n(C)c1=O [Compound 101] |  |  | CC50 at 24 h ([1]; Table IV compound, read-out: Cytotoxicity 3H-Leu Assay IC50): 40 µg/mL (≈ 118 µM); IC50 (HSV-2 (strain MS); [6]): 20 µg/mL (≈ 58.8 µM) |
| CC(=O)Oc1c(Sc2ccccc2)c(=O)n(C)c2ccc(F)cc12 [Compound 102] |  |  | IC50 (HSV-2 (strain MS); [6]): 21 µg/mL (≈ 61.2 µM) |
| CCCCCCn1c(=O)c(C(=O)OCC)c(OC(=O)c2cccn2C)c2cc(C)ccc21 [Compound 103] |  |  | IC50 (HSV-2 (strain MS); [6]): 25 µg/mL (≈ 57 µM) |
| C=CCOC(=O)c1c(OC)c2cc(C)ccc2n(CCCCCC)c1=O [Compound 104] |  |  | IC50 (HSV-2 (strain MS); [6]): > 25 µg/mL |
| CCCCCCn1c(=O)c(C(=O)O)c(OC)c2cc(C)ccc21 [Compound 105] |  |  | IC50 (HSV-2 (strain MS); [6]): > 25 µg/mL |
| COc1c(CCO)c(=O)n(C)c2ccccc12 [Compound 106] |  |  | IC50 (HSV-2 (strain MS); [6]): > 25 µg/mL |
| CCOC(=O)c1c(OC)c2ccccc2n(C)c1=O [Compound 107] |  |  | IC50 (HSV-2 (strain MS); [6]): > 25 µg/mL |
